The values that follow come from patent US10392404B2, “Compounds and compositions as kinase inhibitors” (NOVARTIS AG, priority 2014, dated 2019).

In general, IC50 refers to the point on the concentration scale where inhibition reaches its midpoint. Low values mean higher potency, high ones lower potency.

One experiment deals with T1, b-Raf (V600E) (Homo sapiens, UniProt P15056, V600E).
T1 construct: made in house
Kind of experiment: In vitro Raf activity determination (Alpha Screen, biotinylated kinase-dead MEK1 substrate), B-Raf. It counts as biochemical. The conditions noted are these: b-Raf (V600E) approximately 4 pM; ATP 10 μM; pre-incubation 60 minutes; reaction 3 hours at room temperature. The protocol:
(§1) Full length MEK1 with an inactivating K97R ATP binding site mutation is utilized as a RAF substrate. The MEK1 cDNA was subcloned with an N-terminal (his)6 tag into a vector for E. Coli expression. The MEK1 substrate was purified from E. Coli lysate by nickel affinity chromatography followed by anion exchange. The final MEK1 preparation was biotinylated (Pierce EZ-Link Sulfo-NHS-LC-Biotin) and concentrated.
(§2) Assay Materials: Assay buffer is 50 mM Tris, pH 7.5, 15 mM MgCl2, 0.01% Bovine Serum Albumin (BSA) and 1 mM dithiothreitol (DTT); Stop buffer is 60 mM ethylenediaminetetraacetic acid (EDTA) and 0.01% Tween® 20; b-Raf (V600E), active; biotinylated Mek, kinase dead; Alpha Screen detection kit (available from PerkinElmer™, #6760617R); Anti phospho-MEK1/2 (available from Cell Signaling Technology, Inc. #9121); 384 well low volume assay plates (White Greiner® plates).
(§3) Assay conditions: b-Raf (V600E) approximately 4 pM; c-Raf approximately 4 nM; biotinylated Mek, kinase dead approximately 10 nM; ATP 10 μM for BRAF (V600E) and 1 μM for CRAF; Pre-incubation time with compounds 60 minutes at room temperature; Reaction time 1 or 3 hours at room temperature.
(§4) Assay protocol: Raf and biotinylated Mek (kinase dead) were combined at 2× final concentrations in assay buffer (50 mM Tris, pH 7.5, 15 mM MgCl2, 0.01% BSA and 1 mM DTT) and dispensed […] per well in assay plates (Greiner white 384 well assay plates #781207) containing […] of 40× of a Raf kinase inhibitor test compound diluted in 100% DMSO. The plate was incubated for 60 minutes at room temperature. The Raf kinase activity reaction was started by the addition of […] per well of 2×ATP diluted in assay buffer. After 3 hours (b-Raf(V600E)) or 1 hour (c-Raf). The reactions were stopped and the phosphorylated product was measured using a rabbit anti-p-MEK (Cell Signaling, #9121) antibody and the Alpha Screen IgG (ProteinA) detection Kit (PerkinElmer #6760617R), by the addition of […] to the well of a mixture of the antibody (1:2000 dilution) and detection beads (1:2000 dilution of both beads) in Stop/bead buffer (25 mM EDTA, 50 mM Tris, pH 7.5, 0.01% Tween20). The additions were carried out under dark conditions to protect the detection beads from light. A lid was placed on top of the plate and incubated for 1 hour at room temperature, after which the luminescence was read on a PerkinElmer Envision instrument. The concentration of each compound for 50% inhibition (IC50) was calculated by non-linear regression using XL Fit data analysis software.

The target of another experiment is T2, C-RAF (Homo sapiens, UniProt P04049, Y340E/Y341E).
T2 construct: His tag (implied by nickel chromatography) (cleaved yes); StrepII tag (cleaved yes); made in house; host or cells: Sf9 insect cells (baculovirus), CRAF and h14-3-3 zeta co-expressed; MEK1 substrate from E. coli
Kind of experiment: In vitro Raf activity determination (Alpha Screen, biotinylated kinase-dead MEK1 substrate), C-Raf. It counts as biochemical. The conditions noted are these: c-Raf approximately 4 nM; ATP 1 μM; pre-incubation 60 minutes; reaction 1 hour at room temperature.
From the text: CRAF cDNA was subcloned as full length protein, with Y340E and Y341E activating mutations, into a baculovirus expression vector for Sf9 insect cell expression. h14-3-3 zeta cDNA was subcloned into a baculovirus expression vector for SF9 insect cell expression. Sf9 cells co-expressing both proteins were lysed and subjected to immobilized nickel chromatography and eluted with Imidazole. A second column (StrepII binding column) was used and eluted with desthiobiotin. Protein Tags were removed using Prescission enzyme and the protein was further purified using a flowthrough step to remove tags.
C-Raf TR refers to a truncated C-Raf protein, a Δ1-324 deletion mutant. C-Raf FL refers to the full-length C-Raf protein.
as §1, §2, §3, §4

T2 sequence (P04049 whole entry Y340E/Y341E): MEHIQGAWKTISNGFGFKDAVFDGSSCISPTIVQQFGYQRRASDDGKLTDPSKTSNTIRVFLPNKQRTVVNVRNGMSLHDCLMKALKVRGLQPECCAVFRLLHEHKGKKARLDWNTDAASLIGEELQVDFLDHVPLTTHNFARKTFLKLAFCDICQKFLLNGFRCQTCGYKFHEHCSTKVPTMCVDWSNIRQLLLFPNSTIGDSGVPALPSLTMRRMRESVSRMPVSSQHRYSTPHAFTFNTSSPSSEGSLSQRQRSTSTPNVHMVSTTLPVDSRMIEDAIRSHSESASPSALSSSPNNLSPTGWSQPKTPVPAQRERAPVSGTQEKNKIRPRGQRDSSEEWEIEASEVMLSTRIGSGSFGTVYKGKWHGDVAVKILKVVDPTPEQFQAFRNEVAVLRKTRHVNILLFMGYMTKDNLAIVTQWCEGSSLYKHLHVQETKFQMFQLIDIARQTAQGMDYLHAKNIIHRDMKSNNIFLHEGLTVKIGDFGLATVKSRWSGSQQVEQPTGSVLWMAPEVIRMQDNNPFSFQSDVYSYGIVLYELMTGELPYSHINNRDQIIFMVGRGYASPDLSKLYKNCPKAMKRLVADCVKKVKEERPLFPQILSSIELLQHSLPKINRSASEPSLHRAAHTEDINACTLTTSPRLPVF
T2 sequence (P63104 whole entry partner): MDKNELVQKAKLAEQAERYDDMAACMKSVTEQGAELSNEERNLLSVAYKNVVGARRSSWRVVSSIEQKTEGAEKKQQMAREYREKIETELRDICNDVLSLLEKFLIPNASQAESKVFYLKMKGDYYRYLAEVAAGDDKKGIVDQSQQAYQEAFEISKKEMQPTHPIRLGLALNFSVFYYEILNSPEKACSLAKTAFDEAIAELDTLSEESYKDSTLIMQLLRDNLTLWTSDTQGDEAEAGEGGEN
T1 sequence (P15056 whole entry V600E): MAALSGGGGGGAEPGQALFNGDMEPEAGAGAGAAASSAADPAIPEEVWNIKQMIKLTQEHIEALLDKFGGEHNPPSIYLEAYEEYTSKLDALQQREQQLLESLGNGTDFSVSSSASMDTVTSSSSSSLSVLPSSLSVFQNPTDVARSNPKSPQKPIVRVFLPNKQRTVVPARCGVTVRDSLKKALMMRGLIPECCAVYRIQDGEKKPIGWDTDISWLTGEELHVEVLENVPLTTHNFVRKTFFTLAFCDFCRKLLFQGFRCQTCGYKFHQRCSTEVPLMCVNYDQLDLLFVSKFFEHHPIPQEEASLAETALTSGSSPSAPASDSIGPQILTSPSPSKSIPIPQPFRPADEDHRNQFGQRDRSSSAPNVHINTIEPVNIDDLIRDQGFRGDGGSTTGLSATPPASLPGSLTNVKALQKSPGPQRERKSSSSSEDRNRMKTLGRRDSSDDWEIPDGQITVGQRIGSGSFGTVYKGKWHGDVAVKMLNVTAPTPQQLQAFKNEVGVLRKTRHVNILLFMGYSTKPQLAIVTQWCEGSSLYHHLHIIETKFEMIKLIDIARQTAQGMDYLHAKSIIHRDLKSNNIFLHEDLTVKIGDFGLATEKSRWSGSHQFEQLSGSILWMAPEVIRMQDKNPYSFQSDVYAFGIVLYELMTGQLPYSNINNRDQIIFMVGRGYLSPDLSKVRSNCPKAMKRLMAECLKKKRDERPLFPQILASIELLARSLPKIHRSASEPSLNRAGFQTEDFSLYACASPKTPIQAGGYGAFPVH

`Cc1ncc(NC(=O)c2ccnc(C(C)(C)O)c2)cc1-c1cnc(N(C)C)c(C#N)c1` [Example 272, N-(5′-cyano-6′-(dimethylamino)-2-methyl-[3,3′-bipyridin]-5-yl)-2-(2-hydroxypropan-2-yl)isonicotinamide]: the IC50 against b-Raf (V600E) was found to be 18.4 nM; against C-RAF, 2.16 nM.

As for `Cc1ncc(NC(=O)c2ccnc(C(F)F)c2)cc1-c1cnc(N2CC(C)(O)C2)c(C#N)c1` [Example 182, N-(5′-cyano-6′-(3-hydroxy-3-methylazetidin-1-yl)-2-methyl-[3,3′-bipyridin]-5-yl)-2-(difluoromethyl) isonicotinamide], the IC50 against b-Raf (V600E) was 58.8 nM; on C-RAF, 7.49 nM.

Turning to `COCCNc1ncc(-c2cc(NC(=O)c3cc(C(F)(F)F)ccn3)cnc2C)cc1C#N` [Example 229, N-(5′-cyano-6′-((2-methoxyethyl)amino)-2-methyl-[3,3′-bipyridin]-5-yl)-4-(trifluoromethyl) picolinamide], the IC50 at b-Raf (V600E) is 5 nM; against C-RAF, 1.37 nM.

As for `Cc1ccc(NC(=O)c2cnnc(C(C)(C)C#N)c2)cc1-c1cnc(NC2CCOCC2)c(C#N)c1` [Example 204, N-(3-(5-cyano-6-((tetrahydro-2H-pyran-4-yl)amino)pyridin-3-yl)-4-methylphenyl)-6-(2-cyanopropan-2-yl)pyridazine-4-carboxamide], the IC50 was 1.45 nM at b-Raf (V600E) and 0.219 nM at C-RAF.

With `Cc1ncc(NC(=O)c2cc(C(F)(F)F)ccn2)cc1-c1cnc(NC2CCOCC2)c(C#N)c1` [Example 227, N-(5′-cyano-2-methyl-6′-((tetrahydro-2H-pyran-4-yl)amino)-[3,3′-bipyridin]-5-yl)-4-(trifluoromethyl) picolinamide], the IC50 against b-Raf (V600E) came out at 3 nM; on C-RAF, 0.796 nM.

For `Cc1ccc(NC(=O)c2ccnc(C(F)F)c2)cc1-c1cnc(-c2cnn(C)c2)c(C#N)c1` [Example 126, N-(3-(5-cyano-6-(1-methyl-1H-pyrazol-4-yl)pyridin-3-yl)-4-methylphenyl)-2-(difluoromethyl) isonicotinamide], the IC50 against b-Raf (V600E) was 0.304 nM; at C-RAF, 0.0423 nM.

As for `Cc1cc(C(=O)Nc2ccc(C)c(-c3cnc(N(C)C)c(C#N)c3)c2)n(C)n1` [Example 254, N-(3-(5-cyano-6-(dimethylamino)pyridin-3-yl)-4-methylphenyl)-1,3-dimethyl-1H-pyrazole-5-carboxamide], the IC50 stood at 278 nM on b-Raf (V600E) and 38.4 nM on C-RAF.

Take `Cc1ccc(NC(=O)c2cc(C(C)(C)F)ccn2)cc1-c1cnc(N2CC(C)(O)C2)c(C#N)c1` [Example 244, N-(3-(5-cyano-6-(3-hydroxy-3-methylazetidin-1-yl)pyridin-3-yl)-4-methylphenyl)-4-(2-fluoropropan-2-yl)picolinamide]: the values for the IC50 on b-Raf (V600E) and against C-RAF were 7.18 nM and 0.876 nM, respectively.

In the case of `CCNc1ncc(-c2cc(NC(=O)c3ccnc(C(F)(F)F)c3)ccc2C)cc1C#N` [Example 24, N-(3-(5-cyano-6-(ethylamino)pyridin-3-yl)-4-methylphenyl)-2-(trifluoromethyl) isonicotinamide], the IC50 at b-Raf (V600E) was 0.805 nM; against C-RAF, 0.123 nM.

For `Cc1ccc(NC(=O)c2cc(C3CC3)nn2C)cc1-c1cnc(N(C)C)c(C#N)c1` [Example 255, N-(3-(5-cyano-6-(dimethylamino)pyridin-3-yl)-4-methylphenyl)-3-cyclopropyl-1-methyl-1H-pyrazole-5-carboxamide], the IC50 at b-Raf (V600E) turned out to be 35.6 nM; against C-RAF, 4.84 nM.

As for `Cc1ccc(NC(=O)c2cnnc(C(C)(C)C#N)c2)cc1-c1cnc(N2CC(C)(O)C2)c(C#N)c1` [Example 214, N-(3-(5-cyano-6-(3-hydroxy-3-methylazetidin-1-yl)pyridin-3-yl)-4-methylphenyl)-6-(2-cyanopropan-2-yl)pyridazine-4-carboxamide], the results for the IC50 on b-Raf (V600E) and at C-RAF were 4.72 nM and 0.741 nM, respectively.

Turning to `Cc1ncc(NC(=O)c2ccnc(C(F)(F)F)c2)cc1-c1cnc(NC2CCOCC2)c(C#N)c1` [Example 173, N-(5′-cyano-2-methyl-6′-((tetrahydro-2H-pyran-4-yl)amino)-[3,3′-bipyridin]-5-yl)-2-(trifluoromethyl) isonicotinamide], the IC50 against b-Raf (V600E) was determined as 1.63 nM; against C-RAF it was 0.478 nM.

With `Cc1ncc(NC(=O)c2cnnc(C(F)(F)F)c2)cc1-c1cnc(N2CC(C)(O)C2)c(C#N)c1` [Example 181, N-(5′-cyano-6′-(3-hydroxy-3-methylazetidin-1-yl)-2-methyl-[3,3′-bypyridin]-5-yl)-6-(trifluoromethyl) pyridazine-4-carboxamide], the IC50 was 112 nM on b-Raf (V600E) and 16.8 nM against C-RAF.

`Cc1ncc(NC(=O)c2ccnc(C(C)(C)C#N)c2)cc1-c1cnc(N2CC(C)(O)C2)c(C#N)c1` [Example 30, N-(5′-cyano-6′-(3-hydroxy-3-methylazetidin-1-yl)-2-methyl-[3,3′-bipyridin]-5-yl)-2-(2-cyanopropan-2-yl) isonicotinamide]: the IC50 came to 28.8 nM against b-Raf (V600E) and 3.69 nM against C-RAF.

For the compound `Cc1ccc(NC(=O)c2cc(C(C)(C)F)ccn2)cc1-c1cnc(N2CCOCC2)c(C#N)c1` [Example 245, N-(3-(5-cyano-6-morpholinopyridin-3-yl)-4-methylphenyl)-4-(2-fluoropropan-2-yl)picolinamide], the IC50 at b-Raf (V600E) was 3.24 nM; at C-RAF, 0.533 nM.

For `Cc1ncc(NC(=O)c2cccc(C(F)F)c2)cc1-c1cnc(NC2CCOCC2)c(C#N)c1` [Example 172, N-(5′-cyano-2-methyl-6′-((tetrahydro-2H-pyran-4-yl)amino)-[3,3′-bipyridin]-5-yl)-3-(difluoromethyl) benzamide], the IC50 against b-Raf (V600E) was 1.09 nM; against C-RAF, 0.356 nM.

Turning to `COCCNc1ncc(-c2cc(NC(=O)c3ccnc(C(C)(C)O)c3)cnc2C)cc1C#N` [Example 210, N-(5′-cyano-6′-((2-methoxyethyl)amino)-2-methyl-[3,3′-bipyridin]-5-yl)-2-(2-hydroxypropan-2-yl)isonicotinamide], the IC50 against b-Raf (V600E) worked out at 36 nM; at C-RAF, 5.97 nM.

For `Cc1ccc(NC(=O)c2ccnc(C(C)(C)C#N)c2)cc1-c1cnc(C(C)C)c(C#N)c1` [Example 122, N-(3-(5-cyano-6-isopropylpyridin-3-yl)-4-methylphenyl)-2-(2-cyanopropan-2-yl)isonicotinamide], the results for the IC50 at b-Raf (V600E) and on C-RAF were 2.8 nM and 0.994 nM, respectively.

In the case of `Cc1ccc(NC(=O)c2ccnc(C(F)(F)F)c2)cc1-c1cnc(NC2CCOCC2)c(C#N)c1` [Example 61, N-(3-(5-cyano-6-((tetrahydro-2H-pyran-4-yl)amino)pyridin-3-yl)-4-methylphenyl)-2-(trifluoromethyl) isonicotinamide], the values for the IC50 on b-Raf (V600E) and against C-RAF were 0.509 nM and 0.194 nM, respectively.

For the compound `Cc1ccc(NC(=O)c2ccccc2)cc1-c1cncc(C#N)c1` [Example 149, N-(3-(5-cyanopyridin-3-yl)-4-methylphenyl) benzamide], the IC50 against b-Raf (V600E) is 15100 nM; against C-RAF, 2370 nM.

With `Cc1ncc(NC(=O)c2ccnc(C(F)(F)F)c2)cc1-c1cnc(N2CC(C)(O)C2)c(C#N)c1` [Example 180, N-(5′-cyano-6′-(3-hydroxy-3-methylazetidin-1-yl)-2-methyl-[3,3′-bipyridin]-5-yl)-2-(trifluoromethyl) isonicotinamide], the IC50 on b-Raf (V600E) is 8.46 nM; at C-RAF it was 1.31 nM.
